One compound from ChEMBL document CHEMBL4706505, “F10, a new camptothecin derivative, was identified as a new orally-bioavailable, potent antitumor agent” (Eur J Med Chem, 2020) can be followed below.

Each structure is given as a SMILES string.

The subject of one data set is LoVo. Nature of the data set: Cytotoxicity against human LoVo assessed as reduction in cell viability measured after 72 hrs by MTT assay. The class given is functional, cell-based. (In general: Formazan colour is commonly taken as a measure of viable cells.)
The next data set has as its system HCT-116. The data set can be described thus: Induction of apoptosis in human HCT-116 cells assessed as late apoptotic cells level at 0.001 uM incubated for 24 hrs by Annexin V-FITC/PI staining based flow cytometry (reference value: 0.07%). The class given is functional. For orientation: In flow cytometry, cells or beads pass a laser one at a time.
Data set [1] can be described thus: Toxicity in Kunming mouse assessed as mortality at 30 mg/kg, iv measured once every 30 mins upto 10 days. The class given is organism-based. As to conditions: in vivo, 0.5 h.
A short description of data set [2]: Cmax in nude BALB/c mouse serum at 8.0 mg/kg incubated up to 9 hrs, iv administered […] by LC-MS/MS analysis. The class given is ADME, organism-based. Also noted: route intravenous, dose 8 mg/kg, time <=9.
Data set [3] deals with Raji. The data set can be described thus: Antitumor activity against NPG mouse xenografted with human Raji cell assessed as tumor growth inhibition at 2 mg/kg, ip measured after 5 day. The note with it: 120 h, read-out: TGI. The class given is functional.
Data set [4] relates to Raji. The data set can be described thus: Antitumor activity against NPG mouse xenografted with human Raji cell assessed as decrease in tumor volume at 8 mg/kg, ig measured on the 1 day. The class given is functional.
In data set [5] the test system is Raji. The data set can be described thus: Antitumor activity against NPG mouse xenografted with human Raji cell assessed as tumor growth inhibition at 4 mg/kg, ig measured after 5 day. The class given is functional. The note with it: po, 120 h, read-out: TGI. A general note: Xenograft models place foreign cells or tissue in a host animal.

The IC50 is the concentration at which inhibition is half-maximal. A word on the Cmax: it is the maximum level reached in the sampled fluid or tissue. As for `CCc1c2c(nc3ccc(OCC(=O)N4CCCCC4)cc13)-c1cc3c(c(=O)n1C2)COC(=O)[C@]3(O)CC`, the 50% inhibitory concentration (IC50) in the data set with LoVo is 81 nM. In addition, the Activity in the data set with HCT-116 is 5.48%; in data set [1] it was “Non-Toxic”; in the data set with Raji [4] it was 956 mm3. Also, the highest concentration (Cmax) in data set [2] worked out at 1630 ng/mL. Also, in the data set with Raji [3], the inhibition in vivo at 2 mg/kg worked out at 104%. In the data set on Raji [5], the inhibition in vivo at 4 mg/kg was 33.8%.
